The target of assay [1] is T1, Palmitoyl:protein thioesterase (PPT1) (Homo sapiens, UniProt P50897).
T1 sequence (P50897 28-306): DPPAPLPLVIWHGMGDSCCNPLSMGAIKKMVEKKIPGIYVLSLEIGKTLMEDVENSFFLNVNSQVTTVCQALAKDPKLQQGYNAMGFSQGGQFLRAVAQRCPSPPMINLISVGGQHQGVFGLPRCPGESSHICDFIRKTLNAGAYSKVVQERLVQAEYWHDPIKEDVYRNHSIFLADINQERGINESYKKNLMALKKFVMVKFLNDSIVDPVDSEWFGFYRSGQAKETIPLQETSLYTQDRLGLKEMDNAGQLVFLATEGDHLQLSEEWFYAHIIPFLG
To be noted: cited from earlier work; for PPT1 inhibitory activity: result in words.

For assay [2], the system named is tyrosinase. In words: Degradation of tyrosinase in cycloheximide-treated NHEM (WB). The class given is cell-based, human. The conditions noted are these: 4 hours. On the procedure: NHEM were treated with 1 μg/ml cycloheximide, protein synthesis inhibitor, and with (▪) or without (⋄) 10 μM 2-BP for 4 hours. Tyrosinase levels were analyzed by WB using the mouse monoclonal anti-tyrosinase IgG antibody T311 (1:120 dilution). The band intensities of tyrosinase were normalized by the band intensities of Glyceraldehyde 3-phosphate dehydrogenase (GAPDH) as internal control for each condition. The results shown are the average of three determinations±SE.*p<0.05 vs. DMSO (FIGS. 5A and 5B).

Another assay concerns NHEM (Asian). The assay is described as follows: Melanin synthesis in NHEM with PP2 or KA, with or without 2-BP. The format is cell-based, human. To be noted: 120 hours. The procedure:
NHEM (Asian) were incubated for 120 hours in the presence of PP2, with or without 2-BP. […] Mean±S.E. (N=3)*p<0.05, vs. control. Kojic Acid (KA) was used as a positive control.

Assay [3] concerns tyrosinase. In words: Total tyrosinase protein in NHEM by Western-blot. The class given is cell-based, human. The conditions noted are these: 24 hours, various concentrations, vs. DMSO, normalized by tubulin. On the procedure: (§1) Normal human epidermal melanocytes (NHEM) were incubated with 2-bromopalmitate (2-BP) for 24 hours, and total tyrosinase was determined by Western-blot (WB) using the mouse monoclonal anti-tyrosinase IgG antibody T311 (1:120 dilution). Total tyrosinase protein level was normalized by tubulin. Palmitoylated tyrosinase was evaluated by acyl-RAC and WB. The results shown in FIGS. 2A and 2B, are the average of three determinations SE. *p<0.05 vs. DMSO.

In assay [4] the test system is tyrosinase. The assay is described as follows: Palmitoylated tyrosinase in NHEM by acyl-RAC and WB. The class given is cell-based, human. To be noted: 24 hours, vs. DMSO. On the procedure: as §1
A further assay relates to NHEM. The assay is described as follows: Melanin content in NHEM. The format is cell-based, human. To be noted: 48 hours, various concentrations, vs. DMSO. On the procedure:
(§2) NHEM were treated with indicated concentrations of 2-BP for 48 hours. Melanin content (closed bar) and cell number (open bar) were measured. Values are the average of three determinations±SE. *p<0.05 vs. DMSO. Macroscopic views of cell pellet were taken by digital camera (FIG. 3A). Reconstructed human skin models (Asian type) were incubated with 25 μM 2-BP for 17 days. Eumelanin (EM) and pheomelanin (PM) contents were determined and calculated by following formula. EM=PTCA*25, PM=4−AHP*9. Values are the average of three determinations±SE.*p<0.05 vs. DMSO. Macroscopic views of a human skin model after 17 days were taken by digital camera (FIG. 3B).

The subject of assay [5] is Reconstructed human skin models (Asian type). The assay is described as follows: Melanin content in reconstructed human skin model. The format is cell-based. To be noted: 25 μM, 17 days, vs. DMSO. On the procedure: as §2
In the next assay the test system is Tyrosinase mRNA. In words: Tyrosinase mRNA by real time quantitative PCR in NHEM. The format is cell-based, human. To be noted: 6 or 24 hours. On the procedure:
(§3) NHEM were cultured with 2-BP for 6 or 24 hours. Tyrosinase mRNA levels were analyzed by real time quantitative PCR. The results shown are the average of three determinations±SE.*p<0.05 vs. DMSO (FIG. 4A). NHEM were incubated with 5 μM 2-BP for 24 hours. Glycosidase digestion treatment by endo H and WB analysis on mature and immature form of tyrosinase were conducted by WB (FIG. 4B).

Assay [6] has as its system tyrosinase. In words: Glycosylation of tyrosinase (endo H digestion and WB) in NHEM. The conditions noted are these: 5 μM, 24 hours. The format is cell-based, human. The procedure: as §3
Assay [7] deals with tyrosinase. In words: Ubiquitination of tyrosinase in NHEM (IP and WB). The conditions noted are these: 5 μM, 24 hours. The class given is cell-based, human. On the procedure:
NHEM were treated with 5 μM 2-BP for 24 hours. Equal protein amounts of cell lysate were used for IP by tyrosinase, and the ubiquitinated (UB) level of tyrosinase was analyzed by WB using anti-UB antibody.

For the molecule NBD-αAGDap(Pal)VKIKK [CS38], the “inhibitor potency relative to Dap1” value in [1] (PPT1 inhibition, compared with Dap1) is 3 fold. Besides, the IC50 in assay [1] (PPT1 inhibition) is 2000 nM.

With `C[C@@H]1C[C@@H]([C@H](O)CC2CC(=O)NC(=O)C2)C(=O)[C@@H](C)C1` [cycloheximide], the tyrosinase levels result with tyrosinase [2] (1 μg/ml cycloheximide) is “decreased”.

Regarding AcGDap(Palm)GGR7, in [1], the PPT1 inhibitory activity result is “strong PPT1 inhibitors”.

`O=c1cc(CO)occ1O` [Kojic acid, Kojic Acid]: the melanin synthesis result in the assay with NHEM (Asian) (2-BP-treated cells) and in the assay on NHEM (Asian) (cells not treated with 2-BP) was “mildly inhibited melanin synthesis” each time.

Consider `CCCCCCCCCCCCCCC(Br)C(=O)O` (stereo not drawn) [2-BP, 2-bromopalmitate], for which the “total amount of tyrosinase protein per cell” value with tyrosinase [3] is reported as “statistically significant increase”. Also, in the assay on tyrosinase [4], the “amount of palmitoylated tyrosinase” value is listed as “decreased”. The “melanin content per cell” value in the assay with NHEM is “statistically significant increase”. In assay [5], the “total melanin: eumelanin (EM) and pheomelanin (PM) content of the tissue” value is given as “statistically significant increase”. In addition, in the assay on Tyrosinase mRNA, the “tyrosinase mRNA expression” value is “decrease”. Besides, the glycosylation of tyrosinase entry in the assay on tyrosinase [6] is recorded as “no effect”. For the same molecule, the degradation of tyrosinase result with tyrosinase [2] (10 μM with 1 μg/ml cycloheximide) is “suppresses the degradation of tyrosinase”. Also, the ubiquitination of tyrosinase result in the assay on tyrosinase [7] was “no effect”.

In the case of GGC(Pal) VKIKK [CS8], the PPT1 inhibitory activity entry in [1] is listed as “comparable inhibitory activity to CS38”.

One may read the IC50 as the point on the concentration scale where inhibition reaches its midpoint.
